pIC50: −log10 of the molar value. Activity calls are given as the source filed them. No cut-off for these calls is given here.
Experiments:
[1] = biological target: Vascular endothelial growth factor receptor 2 (Homo sapiens, UniProt P35968); experiment: Inhibition of N-terminal His6-tagged recombinant human KDR (790 residues) expressed in insect Sf21 cells using poly(Glu,Tyr)4:1 as substrate incubated for 60 mins by ELISA
[2] = cells; conditions: Homo sapiens, NCI-H3122, 72 h
Description: Antiproliferative activity against human NCI-H3122 cells after 72 hrs by SRB/CCK-8 assay

[3] = cells; conditions: Homo sapiens, SU-DHL-1, 72 h
Description: Antiproliferative activity against human SU-DHL1 cells after 72 hrs by SRB/CCK-8 assay

[4] = biological target: Platelet-derived growth factor receptor beta (Homo sapiens, UniProt P09619); experiment: Inhibition of N-terminal His6-tagged recombinant human PDGFRbeta (557 residues) expressed in insect Sf21 cells using poly(Glu,Tyr)4:1 as substrate incubated for 60 mins by ELISA
[5] = biological target: Epidermal growth factor receptor (Homo sapiens, UniProt P00533, L858R/T790M); experiment: Inhibition of N-terminal GST-tagged recombinant human EGFR T790M/L858R double mutant (696 residues) expressed in insect Sf21 cells using poly(Glu,Tyr)4:1 as substrate incubated for 60 mins by ELISA
[6] = biological target: Hepatocyte growth factor receptor (Homo sapiens, UniProt P08581); experiment: Inhibition of N-terminal His6-tagged recombinant human c-Met (974 residues) expressed in insect Sf21 cells using poly(Glu,Tyr)4:1 as substrate incubated for 60 mins by ELISA
[7] = Antitumor activity against mouse NIH/3T3 cells expressing EML4-ALK L1196M mutant xenografted in nude mouse assessed as tumor growth inhibition at 20 mg/kg, po qd administered for 10 days; format: functional; conditions: NIH3T3, po, 240 h, read-out: TGI
[8] = biological target: Leukocyte tyrosine kinase receptor (Homo sapiens, UniProt P29376); experiment: Inhibition of recombinant LTK (unknown origin) using poly(Glu,Tyr)4:1 as substrate incubated for 60 mins by ELISA
[9] = biological target: Tyrosine-protein kinase ABL1 (Mus musculus, UniProt P00520); experiment: Inhibition of N-terminal His6-tagged recombinant mouse ABL (27 to 1123 residues) expressed in insect Sf21 cells using poly(Glu,Tyr)4:1 as substrate incubated for 60 mins by ELISA
[10] = biological target: Receptor tyrosine-protein kinase erbB-2 (Homo sapiens, UniProt P04626); experiment: Inhibition of human ErbB2 using poly(Glu,Tyr)4:1 as substrate incubated for 60 mins by ELISA
[11] = biological target: Mast/stem cell growth factor receptor Kit (Homo sapiens, UniProt P10721); experiment: Inhibition of N-terminal GST-tagged recombinant human c-Kit (544 residues) expressed in insect Sf21 cells using poly(Glu,Tyr)4:1 as substrate incubated for 60 mins by ELISA
[12] = biological target: Fibroblast growth factor receptor 1 (Homo sapiens, UniProt P11362); experiment: Inhibition of N-terminal GST-tagged recombinant human FGFR1 (456 to 765 residues) expressed in insect Sf21 cells using poly(Glu,Tyr)4:1 as substrate incubated for 60 mins by ELISA
[13] = biological target: Tyrosine-protein kinase receptor TYRO3 (Homo sapiens, UniProt Q06418); experiment: Inhibition of N-terminal His6-tagged recombinant human TYRO3 (451 residues) expressed in insect Sf21 cells using poly(Glu,Tyr)4:1 as substrate incubated for 60 mins by ELISA
[14] = biological target: Insulin-like growth factor 1 receptor (Homo sapiens, UniProt P08069); experiment: Inhibition of N-terminal His6-tagged recombinant human IGF-1R (959 residues) expressed in insect Sf21 cells using poly(Glu,Tyr)4:1 as substrate incubated for 60 mins by ELISA
[15] = biological target: T1, Proto-oncogene tyrosine-protein kinase receptor Ret (Homo sapiens, UniProt P07949); experiment: Inhibition of RET (unknown origin) in mouse BaF3/CCDC6-RET cells assessed as suppression of ERK1/2 phosphorylation at T202/Y204 residue after 1 hr by Western blot analysis; format: cell-based
[16] = tested on: NIH3T3; experiment: Antitumor activity against mouse NIH/3T3 cells expressing EML4-ALK L1196M mutant xenografted in nude mouse assessed as tumor stasis at 40 mg/kg, po qd administered for 10 days; format: functional, organism-based
[17] = cells; conditions: Mus musculus, NIH3T3, 72 h
Description: Antiproliferative activity against mouse NIH/3T3 cells expressing EML4-ALK L1196 mutant after 72 hrs by SRB/CCK-8 assay

[18] = Antitumor activity against mouse NIH/3T3 cells expressing wild type EML4-ALK xenografted in nude mouse assessed as tumor growth inhibition at 40 mg/kg, po qd administered for 10 days; format: functional; conditions: NIH3T3, po, 240 h, read-out: TGI
[19] = biological target: Proto-oncogene tyrosine-protein kinase Src (Homo sapiens, UniProt P12931); experiment: Inhibition of recombinant human c-Src expressed in insect Sf9 cells using poly(Glu,Tyr)4:1 as substrate incubated for 60 mins by ELISA
[20] = tested on: Mus musculus; experiment: Toxicity in nude mouse assessed as weight loss at 20 to 40 mg/kg, po qd administered for 10 days; format: organism-based; conditions: in vivo, 240 h
[21] = biological target: Macrophage-stimulating protein receptor (Homo sapiens, UniProt Q04912); experiment: Inhibition of N-terminal His6-tagged recombinant human Ron (983 residues) expressed in insect Sf21 cells using poly(Glu,Tyr)4:1 as substrate incubated for 60 mins by ELISA
[22] = biological target: Tyrosine-protein kinase receptor UFO (Homo sapiens, UniProt P30530); experiment: Inhibition of recombinant human AXL using poly(Glu,Tyr)4:1 as substrate incubated for 60 mins by ELISA
[23] = biological target: T1, Proto-oncogene tyrosine-protein kinase receptor Ret; experiment: biochemical
[24] = biological target: Vascular endothelial growth factor receptor 1 (Homo sapiens, UniProt P17948); experiment: Inhibition of N-terminal GST-tagged recombinant human FLT1 (783 residues) expressed in insect Sf21 cells using poly(Glu,Tyr)4:1 as substrate incubated for 60 mins by ELISA
[25] = cells; conditions: Homo sapiens, SUP-M2, 72 h
Description: Antiproliferative activity against human SUP-M2 cells after 72 hrs by SRB/CCK-8 assay

[26] = biological target: Proto-oncogene tyrosine-protein kinase ROS (Homo sapiens, UniProt P08922); experiment: Inhibition of recombinant ROS1 (unknown origin) using poly(Glu,Tyr)4:1 as substrate incubated for 60 mins by ELISA
[27] = cells; conditions: Homo sapiens, KARPAS-299, 72 h
Description: Antiproliferative activity against human KARPAS299 cells after 72 hrs by SRB/CCK-8 assay

[28] = Antitumor activity against mouse NIH/3T3 cells expressing wild type EML4-ALK xenografted in nude mouse assessed as tumor growth inhibition at 20 mg/kg, po qd administered for 10 days; format: functional; conditions: NIH3T3, po, 240 h, read-out: TGI
[29] = biological target: Receptor-type tyrosine-protein kinase FLT3 (Homo sapiens, UniProt P36888); experiment: Inhibition of N-terminal GST-tagged recombinant human FLT3 (564 residues) expressed in insect Sf21 cells using poly(Glu,Tyr)4:1 as substrate incubated for 60 mins by ELISA
[30] = biological target: Platelet-derived growth factor receptor alpha (Homo sapiens, UniProt P16234); experiment: Inhibition of N-terminal His6-tagged recombinant human PDGFRalpha (550 residues) expressed in insect Sf21 cells using poly(Glu,Tyr)4:1 as substrate incubated for 60 mins by ELISA
[31] = tested on: NIH3T3; experiment: Antitumor activity against mouse NIH/3T3 cells expressing EML4-ALK L1196M mutant xenografted in nude mouse assessed as partial tumor regression at 40 mg/kg, po qd administered for 10 days; format: functional, organism-based
[32] = biological target: T1, Proto-oncogene tyrosine-protein kinase receptor Ret; experiment: Inhibition of RET (unknown origin) in mouse BaF3/CCDC6-RET cells assessed as suppression of AKT phosphorylation at S473 residue after 1 hr by Western blot analysis; format: cell-based
[33] = tested on: NIH3T3; experiment: Antitumor activity against mouse NIH/3T3 cells expressing wild type EML4-ALK xenografted in nude mouse assessed as tumor stasis at 20 to 40 mg/kg, po qd administered for 10 days; format: functional, organism-based
[34] = tested on: NIH3T3; experiment: Antitumor activity against mouse NIH/3T3 cells expressing wild type EML4-ALK xenografted in nude mouse assessed as partial tumor regression at 20 to 40 mg/kg, po qd administered for 10 days; format: functional, organism-based
[35] = biological target: T1, Proto-oncogene tyrosine-protein kinase receptor Ret; experiment: Inhibition of RET (unknown origin) phosphorylation at […] residue in mouse BaF3/CCDC6-RET cells after 1 hr by Western blot analysis; format: cell-based
[36] = biological target: Receptor tyrosine-protein kinase erbB-4 (Homo sapiens, UniProt Q15303); experiment: Inhibition of N-terminal His6-tagged recombinant human ErbB4 (709 to 991 residues) expressed in insect Sf21 cells using poly(Glu,Tyr)4:1 as substrate incubated for 60 mins by ELISA
[37] = biological target: T1, Proto-oncogene tyrosine-protein kinase receptor Ret; experiment: Inhibition of RET (unknown origin) in mouse BaF3/CCDC6-RET cells assessed as suppression of STAT3 phosphorylation at Y705 residue after 1 hr by Western blot analysis; format: cell-based
[38] = cells; conditions: Mus musculus, NIH3T3, 72 h; remark: listed apart in the source
Description: Antiproliferative activity against mouse NIH/3T3 cells expressing wild type EML4-ALK after 72 hrs by SRB/CCK-8 assay

[39] = Antitumor activity against mouse NIH/3T3 cells expressing EML4-ALK L1196M mutant xenografted in nude mouse assessed as tumor growth inhibition at 40 mg/kg, po qd administered for 10 days; format: functional; conditions: NIH3T3, po, 240 h, read-out: TGI
[40] = animal or person; conditions: Mus musculus, NIH3T3, po, 240 h, read-out: TGI
Description: Antitumor activity against mouse NIH/3T3 cells expressing wild type EML4-ALK xenografted in nude mouse assessed as tumor growth inhibition at 50 mg/kg, po qd administered for 10 days

[41] = animal or person; conditions: Mus musculus, NIH3T3, po, 240 h, read-out: TGI; remark: listed apart in the source
Description: Antitumor activity against mouse NIH/3T3 cells expressing EML4-ALK L1196M mutant xenografted in nude mouse assessed as tumor growth inhibition at 50 mg/kg, po qd administered for 10 days

[42] = tested on: NIH3T3; experiment: Antitumor activity against mouse NIH/3T3 cells expressing EML4-ALK L1196M mutant xenografted in nude mouse assessed as tumor stasis at 50 mg/kg, po qd administered for 10 days; format: functional, organism-based
[43] = tested on: NIH3T3; experiment: Antitumor activity against mouse NIH/3T3 cells expressing EML4-ALK L1196M mutant xenografted in nude mouse assessed as partial tumor regression at 50 mg/kg, po qd administered for 10 days; format: functional, organism-based

T1 sequence (P07949 whole entry): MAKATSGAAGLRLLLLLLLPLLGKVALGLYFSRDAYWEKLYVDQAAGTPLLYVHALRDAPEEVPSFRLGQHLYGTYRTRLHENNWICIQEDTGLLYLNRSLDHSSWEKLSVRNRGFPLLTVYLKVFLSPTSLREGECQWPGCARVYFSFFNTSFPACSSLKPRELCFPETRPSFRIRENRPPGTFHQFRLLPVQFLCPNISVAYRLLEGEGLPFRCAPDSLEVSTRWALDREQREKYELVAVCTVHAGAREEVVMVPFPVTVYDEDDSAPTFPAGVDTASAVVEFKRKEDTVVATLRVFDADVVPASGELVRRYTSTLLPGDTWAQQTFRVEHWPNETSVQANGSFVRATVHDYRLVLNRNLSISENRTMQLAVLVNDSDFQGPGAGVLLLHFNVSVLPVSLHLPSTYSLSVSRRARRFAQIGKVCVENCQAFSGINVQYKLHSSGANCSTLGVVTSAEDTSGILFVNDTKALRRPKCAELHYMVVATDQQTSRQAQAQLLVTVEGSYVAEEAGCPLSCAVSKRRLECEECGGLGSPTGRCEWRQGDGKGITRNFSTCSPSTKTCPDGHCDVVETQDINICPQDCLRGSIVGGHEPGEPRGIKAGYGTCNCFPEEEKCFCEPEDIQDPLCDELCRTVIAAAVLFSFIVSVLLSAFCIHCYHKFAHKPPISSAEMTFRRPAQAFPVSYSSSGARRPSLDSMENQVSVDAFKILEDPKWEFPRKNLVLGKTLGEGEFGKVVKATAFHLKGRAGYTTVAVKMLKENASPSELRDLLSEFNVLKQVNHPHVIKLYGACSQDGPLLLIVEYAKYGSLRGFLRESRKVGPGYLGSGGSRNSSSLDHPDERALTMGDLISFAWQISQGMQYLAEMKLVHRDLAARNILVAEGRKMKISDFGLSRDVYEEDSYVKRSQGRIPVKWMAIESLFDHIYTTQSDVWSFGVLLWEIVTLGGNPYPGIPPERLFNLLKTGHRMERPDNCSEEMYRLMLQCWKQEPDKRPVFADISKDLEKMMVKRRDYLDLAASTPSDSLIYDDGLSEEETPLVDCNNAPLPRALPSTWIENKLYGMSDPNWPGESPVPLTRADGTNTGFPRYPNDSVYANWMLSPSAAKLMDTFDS
Chain of Platelet-derived growth factor receptor alpha (P16234 whole entry): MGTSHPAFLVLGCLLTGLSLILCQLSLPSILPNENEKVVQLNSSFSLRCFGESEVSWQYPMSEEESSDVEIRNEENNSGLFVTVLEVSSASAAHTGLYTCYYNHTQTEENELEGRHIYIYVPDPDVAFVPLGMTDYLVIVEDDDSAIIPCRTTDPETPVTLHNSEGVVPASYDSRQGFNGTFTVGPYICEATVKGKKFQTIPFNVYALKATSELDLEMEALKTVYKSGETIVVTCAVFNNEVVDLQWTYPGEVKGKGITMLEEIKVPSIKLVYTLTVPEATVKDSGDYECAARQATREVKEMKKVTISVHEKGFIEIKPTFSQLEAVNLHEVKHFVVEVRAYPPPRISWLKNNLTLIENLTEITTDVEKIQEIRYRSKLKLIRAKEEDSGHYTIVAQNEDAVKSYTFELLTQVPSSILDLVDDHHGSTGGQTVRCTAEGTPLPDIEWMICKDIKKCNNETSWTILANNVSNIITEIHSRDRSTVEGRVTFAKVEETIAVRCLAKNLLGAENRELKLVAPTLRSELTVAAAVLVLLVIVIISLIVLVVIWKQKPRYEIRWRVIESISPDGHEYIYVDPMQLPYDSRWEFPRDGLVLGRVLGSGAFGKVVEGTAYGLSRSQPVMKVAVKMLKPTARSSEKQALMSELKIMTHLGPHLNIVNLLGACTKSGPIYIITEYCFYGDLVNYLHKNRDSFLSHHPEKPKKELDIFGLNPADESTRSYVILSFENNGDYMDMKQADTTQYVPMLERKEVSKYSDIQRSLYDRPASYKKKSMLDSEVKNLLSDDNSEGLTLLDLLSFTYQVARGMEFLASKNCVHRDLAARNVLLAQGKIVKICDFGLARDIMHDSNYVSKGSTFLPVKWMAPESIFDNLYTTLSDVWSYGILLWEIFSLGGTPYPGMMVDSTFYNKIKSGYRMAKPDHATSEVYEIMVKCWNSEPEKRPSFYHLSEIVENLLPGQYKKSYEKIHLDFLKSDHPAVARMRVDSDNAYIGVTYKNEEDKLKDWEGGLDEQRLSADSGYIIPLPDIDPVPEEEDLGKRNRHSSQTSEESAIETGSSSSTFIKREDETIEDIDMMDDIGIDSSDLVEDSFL
Chain of Tyrosine-protein kinase receptor UFO (P30530 whole entry): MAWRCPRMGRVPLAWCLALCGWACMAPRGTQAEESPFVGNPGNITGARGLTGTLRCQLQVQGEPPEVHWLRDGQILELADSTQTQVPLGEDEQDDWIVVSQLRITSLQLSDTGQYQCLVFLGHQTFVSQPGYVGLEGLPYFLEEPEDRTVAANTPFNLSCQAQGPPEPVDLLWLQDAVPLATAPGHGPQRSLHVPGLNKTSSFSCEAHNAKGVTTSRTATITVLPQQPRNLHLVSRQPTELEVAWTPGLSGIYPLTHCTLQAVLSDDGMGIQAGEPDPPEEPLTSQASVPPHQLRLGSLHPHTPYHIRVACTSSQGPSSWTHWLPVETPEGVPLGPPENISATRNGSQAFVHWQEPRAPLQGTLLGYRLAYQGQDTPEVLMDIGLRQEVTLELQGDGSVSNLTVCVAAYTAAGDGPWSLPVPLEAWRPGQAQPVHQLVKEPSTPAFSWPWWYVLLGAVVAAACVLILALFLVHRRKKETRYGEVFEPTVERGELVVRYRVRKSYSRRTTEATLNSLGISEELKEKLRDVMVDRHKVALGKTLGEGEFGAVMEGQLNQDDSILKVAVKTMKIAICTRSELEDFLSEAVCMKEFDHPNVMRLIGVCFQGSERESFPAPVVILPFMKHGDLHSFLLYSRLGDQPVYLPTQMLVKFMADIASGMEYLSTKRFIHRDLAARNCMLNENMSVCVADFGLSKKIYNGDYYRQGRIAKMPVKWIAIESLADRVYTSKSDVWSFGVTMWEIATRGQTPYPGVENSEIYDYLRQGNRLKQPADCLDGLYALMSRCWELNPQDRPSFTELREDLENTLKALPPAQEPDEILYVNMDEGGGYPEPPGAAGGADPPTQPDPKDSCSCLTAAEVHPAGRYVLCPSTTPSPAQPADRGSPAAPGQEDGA
Chain of Receptor tyrosine-protein kinase erbB-2 (P04626 whole entry): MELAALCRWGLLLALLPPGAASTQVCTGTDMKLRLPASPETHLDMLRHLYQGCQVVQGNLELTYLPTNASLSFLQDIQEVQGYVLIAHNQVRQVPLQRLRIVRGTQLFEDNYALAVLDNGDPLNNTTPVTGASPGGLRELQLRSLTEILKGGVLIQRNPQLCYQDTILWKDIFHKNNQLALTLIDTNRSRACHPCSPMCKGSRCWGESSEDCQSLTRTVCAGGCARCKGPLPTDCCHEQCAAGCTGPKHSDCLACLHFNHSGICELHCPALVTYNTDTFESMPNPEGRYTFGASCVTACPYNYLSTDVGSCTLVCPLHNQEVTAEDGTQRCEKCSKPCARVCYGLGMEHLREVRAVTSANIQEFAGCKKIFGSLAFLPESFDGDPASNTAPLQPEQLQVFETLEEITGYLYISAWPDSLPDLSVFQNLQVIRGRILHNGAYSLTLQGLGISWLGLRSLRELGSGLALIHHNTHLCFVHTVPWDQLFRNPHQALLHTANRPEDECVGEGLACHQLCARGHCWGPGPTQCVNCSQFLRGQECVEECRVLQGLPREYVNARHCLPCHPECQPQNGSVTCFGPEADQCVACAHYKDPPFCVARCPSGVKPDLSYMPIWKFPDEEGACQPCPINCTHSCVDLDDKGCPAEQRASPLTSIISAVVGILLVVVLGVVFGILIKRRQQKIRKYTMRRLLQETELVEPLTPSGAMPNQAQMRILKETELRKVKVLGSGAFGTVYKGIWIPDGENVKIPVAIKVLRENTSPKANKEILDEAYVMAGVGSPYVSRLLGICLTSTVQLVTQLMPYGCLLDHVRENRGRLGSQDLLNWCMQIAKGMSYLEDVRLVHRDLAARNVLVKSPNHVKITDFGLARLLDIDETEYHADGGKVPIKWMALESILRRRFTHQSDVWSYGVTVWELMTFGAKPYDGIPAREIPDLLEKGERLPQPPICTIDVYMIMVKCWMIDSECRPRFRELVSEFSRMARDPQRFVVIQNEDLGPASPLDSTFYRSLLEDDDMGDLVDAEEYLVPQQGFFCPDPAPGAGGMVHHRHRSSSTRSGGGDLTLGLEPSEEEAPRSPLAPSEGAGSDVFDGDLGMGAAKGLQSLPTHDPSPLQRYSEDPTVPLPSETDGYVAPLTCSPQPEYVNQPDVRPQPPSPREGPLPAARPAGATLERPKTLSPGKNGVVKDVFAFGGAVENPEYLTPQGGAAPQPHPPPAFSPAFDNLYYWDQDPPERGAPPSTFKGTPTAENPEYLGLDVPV
Chain of Proto-oncogene tyrosine-protein kinase Src (P12931 2-536 limits assumed): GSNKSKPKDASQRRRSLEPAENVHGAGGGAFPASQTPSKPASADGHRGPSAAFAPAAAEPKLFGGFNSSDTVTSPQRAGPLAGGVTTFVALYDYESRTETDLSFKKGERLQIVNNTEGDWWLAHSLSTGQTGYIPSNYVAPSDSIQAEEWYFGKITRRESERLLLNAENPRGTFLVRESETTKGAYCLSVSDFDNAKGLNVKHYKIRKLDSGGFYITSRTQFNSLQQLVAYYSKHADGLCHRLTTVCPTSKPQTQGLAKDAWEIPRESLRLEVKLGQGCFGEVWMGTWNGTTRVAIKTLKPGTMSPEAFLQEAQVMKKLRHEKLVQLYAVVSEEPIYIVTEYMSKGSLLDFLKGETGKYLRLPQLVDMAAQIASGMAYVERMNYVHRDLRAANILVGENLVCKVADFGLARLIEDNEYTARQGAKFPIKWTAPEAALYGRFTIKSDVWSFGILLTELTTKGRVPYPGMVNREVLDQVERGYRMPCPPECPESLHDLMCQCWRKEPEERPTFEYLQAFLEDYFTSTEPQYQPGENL

Compound: CC1(C)c2cc(C3CCN(CC4CCOCC4)CC3)ccc2C(=O)c2c1[nH]c1cc(C#N)ccc21
- pIC50 [1]: 6.98
- pIC50 [2]: 7.36
- pIC50 [3]: 7.32
- pIC50 [4]: 7.19
- pIC50 [5]: 6.46
- pIC50 [6]: < 6.00
- inhibition in vivo at 20 mg/kg [7]: 56.9%
- pIC50 [8]: 7.37
- pIC50 [9]: < 6.00
- pIC50 [10]: < 6.00
- pIC50 [11]: < 6.00
- pIC50 [12]: < 6.00
- pIC50 [13]: 7.14
- pIC50 [14]: 7.56
- inhibition [15]: Dose-dependent effect
- Activity [16]: Active
- pIC50 [17]: 6.71
- inhibition in vivo at 40 mg/kg [18]: 102%
- pIC50 [19]: 7.12
- Activity [20]: Non-toxic
- pIC50 [21]: 7.03
- pIC50 [22]: 6.77
- pIC50 [23]: 8.80
- pIC50 [24]: 6.80
- pIC50 [25]: 7.64
- pIC50 [26]: < 6.00
- pIC50 [27]: 7.35
- inhibition in vivo at 20 mg/kg [28]: 102%
- pIC50 [29]: 7.07
- pIC50 [30]: 6.40
- Activity [31]: Active
- inhibition [32]: Dose-dependent effect
- Activity [33]: Active
- Activity [34]: Active
- inhibition [35]: Dose-dependent effect
- pIC50 [36]: 6.67
- inhibition [37]: Dose-dependent effect
- pIC50 [38]: 7.33
- inhibition in vivo at 40 mg/kg [39]: 87.3%

Compound: CCc1cc2c(cc1N1CCC(N3CCOCC3)CC1)C(C)(C)c1[nH]c3cc(C#N)ccc3c1C2=O [ALECTINIB]
- pIC50 [2]: 7.76
- pIC50 [3]: 7.69
- inhibition in vivo at 50 mg/kg [40]: 103%
- pIC50 [17]: 6.88
- inhibition in vivo at 50 mg/kg [41]: 83.5%
- pIC50 [25]: 7.75
- pIC50 [27]: 7.82
- Activity [42]: Active
- pIC50 [38]: 7.49
- Activity [43]: Active

— ChEMBL document CHEMBL3826932, “An orally available tyrosine kinase ALK and RET dual inhibitor bearing the tetracyclic benzo[b]carbazolone core” (Eur J Med Chem, 2016)
